Source: paper PMC6727418, “Cyanidin-3-rutinoside acts as a natural inhibitor of intestinal lipid digestion and absorption” (BMC Complementary and Alternative Medicine, 2019)

Experiments:
[1] = target: T1, porcine pancreatic cholesterol esterase (Sus scrofa, UniProt A0A286ZKB1); assay: colorimetric p-NPB hydrolysis assay, percent inhibition at […]; type: biochemical; settings: read-out: % inhibition at 1 mM
T1 construct: gene CEL
T1 sequence (A0A286ZKB1 96-682): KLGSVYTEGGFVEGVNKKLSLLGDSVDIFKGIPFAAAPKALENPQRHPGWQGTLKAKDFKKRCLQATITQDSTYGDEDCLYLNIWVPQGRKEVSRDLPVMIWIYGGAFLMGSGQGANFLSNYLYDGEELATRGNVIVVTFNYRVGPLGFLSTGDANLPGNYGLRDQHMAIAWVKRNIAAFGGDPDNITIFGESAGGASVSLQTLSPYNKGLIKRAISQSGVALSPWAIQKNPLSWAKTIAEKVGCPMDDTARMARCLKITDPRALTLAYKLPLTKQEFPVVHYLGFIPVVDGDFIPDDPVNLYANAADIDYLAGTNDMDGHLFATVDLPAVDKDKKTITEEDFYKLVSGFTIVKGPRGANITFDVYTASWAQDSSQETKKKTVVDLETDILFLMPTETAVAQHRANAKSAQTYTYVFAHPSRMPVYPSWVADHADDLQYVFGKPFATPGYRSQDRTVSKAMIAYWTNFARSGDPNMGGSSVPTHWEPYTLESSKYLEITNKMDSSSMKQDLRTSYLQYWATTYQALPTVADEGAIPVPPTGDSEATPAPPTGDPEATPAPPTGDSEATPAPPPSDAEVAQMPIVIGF

[2] = target: T2, Porcine pancreatic lipase (Sus scrofa, UniProt P00591); assay: fluorometric 4-MUO hydrolysis assay; Lineweaver-Burk kinetics (Ki […], Ki'[…]); type: biochemical
T2 construct: gene PNLIP
T2 sequence (P00591 1-450): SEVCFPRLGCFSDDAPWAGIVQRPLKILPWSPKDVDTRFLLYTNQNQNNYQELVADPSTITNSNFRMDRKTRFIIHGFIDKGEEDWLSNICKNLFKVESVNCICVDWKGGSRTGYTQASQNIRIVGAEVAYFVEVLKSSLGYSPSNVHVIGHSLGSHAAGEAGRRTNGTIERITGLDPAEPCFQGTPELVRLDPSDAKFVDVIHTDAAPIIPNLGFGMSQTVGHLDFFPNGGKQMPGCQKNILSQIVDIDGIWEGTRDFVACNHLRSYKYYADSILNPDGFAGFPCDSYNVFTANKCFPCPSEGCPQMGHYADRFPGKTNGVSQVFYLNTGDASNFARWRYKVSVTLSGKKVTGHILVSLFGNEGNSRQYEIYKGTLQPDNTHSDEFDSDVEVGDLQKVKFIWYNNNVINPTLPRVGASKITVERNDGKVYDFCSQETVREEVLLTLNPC

Compound	inhibition at 1000 µM [1] [%]	IC50 [2] [µM]
O=C(O)c1cc(O)c(O)c(O)c1 [gallic acid]	~39	–
C[C@@H]1O[C@@H](OC[C@H]2O[C@@H](Oc3cc4c(O)cc(O)cc4[o+]c3-c3ccc(O)c(O)c3)[C@H](O)[C@@H](O)[C@@H]2O)[C@H](O)[C@H](O)[C@H]1O [C3R, Cyanidin-3-rutinoside]	–	59.4 ± 1.41
